Key:
[1] = molecular target: T1, human recombinant serotonin (5-Hydroxytryptamine) 5-HT2C receptor (Homo sapiens, UniProt P28335); assay: Serotonin 5-HT2C radioligand binding assay ([3H]Mesulergine); details: compound at 1 μM; 1 nM [3H]Mesulergine; CHO-K1 cells
T1 construct: expressed in transfected cells; host or cells: Chinese hamster ovary (CHO-K1) cells
T1 sequence (P28335 33-458): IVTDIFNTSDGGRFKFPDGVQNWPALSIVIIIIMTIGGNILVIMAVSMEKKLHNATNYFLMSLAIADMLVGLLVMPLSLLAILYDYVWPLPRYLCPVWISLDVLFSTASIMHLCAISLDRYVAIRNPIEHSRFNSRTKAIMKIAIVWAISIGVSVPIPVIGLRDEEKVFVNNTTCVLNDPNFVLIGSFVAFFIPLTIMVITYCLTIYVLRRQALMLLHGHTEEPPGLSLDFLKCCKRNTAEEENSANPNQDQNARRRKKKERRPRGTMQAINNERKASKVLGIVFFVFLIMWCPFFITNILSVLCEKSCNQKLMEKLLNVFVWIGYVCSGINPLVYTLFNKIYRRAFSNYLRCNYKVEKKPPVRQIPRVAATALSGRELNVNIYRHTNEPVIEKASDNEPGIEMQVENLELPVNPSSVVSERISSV
Description: (§1) Compounds of the invention were incubated with 1 nM [^3H]Mesulergine for 60 min at 25° C. Non-specific binding was estimated in the presence of 1 μM Mianserin. Receptor proteins were filtered and washed, the filters were then counted to determine [^3H]Mesulergine specifically bound. Compounds were screened at 1 μM or lower, using 1% DMSO as vehicle. Biochemical assay results are presented as the percent inhibition of specific binding in Table 4.

[2] = molecular target: T2, human recombinant serotonin (5-Hydroxytryptamine) 5-HT2A receptor (Homo sapiens, UniProt P28223); assay: Serotonin 5-HT2A radioligand binding assay ([3H]Ketanserin); details: 0.5 nM [3H]Ketanserin, CHO-K1 cells; for inhibition at 1 µM: read-out: Percent Inhibition of ligand binding, Serotonin (1 μM) 5-HT2A
T2 construct: expressed in transfected cells; host or cells: Chinese hamster ovary (CHO-K1) cells
T2 sequence (P28223 whole entry): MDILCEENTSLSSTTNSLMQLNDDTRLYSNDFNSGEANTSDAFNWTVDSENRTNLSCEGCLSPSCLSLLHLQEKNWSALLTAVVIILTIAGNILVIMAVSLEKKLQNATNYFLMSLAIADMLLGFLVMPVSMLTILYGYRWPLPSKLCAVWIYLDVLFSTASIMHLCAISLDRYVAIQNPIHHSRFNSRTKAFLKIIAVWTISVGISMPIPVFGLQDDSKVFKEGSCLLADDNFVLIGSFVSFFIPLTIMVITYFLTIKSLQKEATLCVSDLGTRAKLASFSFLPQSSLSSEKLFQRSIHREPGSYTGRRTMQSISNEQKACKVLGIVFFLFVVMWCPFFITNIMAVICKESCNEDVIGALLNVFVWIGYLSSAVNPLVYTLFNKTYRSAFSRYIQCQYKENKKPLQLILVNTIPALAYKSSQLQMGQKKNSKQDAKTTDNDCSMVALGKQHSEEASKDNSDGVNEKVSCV
Description: as §1, with “with 0.5” for “with 1”, “nM [^3H]Ketanserin” for “nM [^3H]Mesulergine”, “determine [^3H]Ketanserin” for “determine [^3H]Mesulergine”

[3] = molecular target: T3, human recombinant serotonin (5-Hydroxytryptamine) 5-HT6 receptor (Homo sapiens, UniProt P50406); assay: Serotonin 5-HT6 radioligand binding assay ([3H]LSD); details: compound at 1 μM, HeLa cells
T3 construct: expressed in transfected cells; host or cells: human HeLa cells
T3 sequence (P50406 whole entry): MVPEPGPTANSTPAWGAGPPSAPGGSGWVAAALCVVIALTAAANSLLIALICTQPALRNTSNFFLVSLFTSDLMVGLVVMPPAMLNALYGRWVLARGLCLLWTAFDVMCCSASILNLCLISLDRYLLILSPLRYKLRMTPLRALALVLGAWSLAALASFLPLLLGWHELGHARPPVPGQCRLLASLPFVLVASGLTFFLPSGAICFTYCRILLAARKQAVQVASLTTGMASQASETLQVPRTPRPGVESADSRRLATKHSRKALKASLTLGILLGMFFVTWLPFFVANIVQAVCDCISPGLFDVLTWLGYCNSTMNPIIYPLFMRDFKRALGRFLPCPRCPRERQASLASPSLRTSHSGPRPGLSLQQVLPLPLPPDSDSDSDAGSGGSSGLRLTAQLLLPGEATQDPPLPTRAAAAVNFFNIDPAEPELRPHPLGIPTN
Description: (§2) Compounds of the invention were incubated with 1.5 nM [3H]Lysergic acid diethylamide (LSD) for 120 min at 37° C. […] Receptor proteins were filtered and washed, the filters were then counted to determine [3H]LSD specifically bound. Compounds were screened at 1 μM or lower, using 1% DMSO as vehicle. Biochemical assay results are presented as the percent inhibition of specific binding in Table 4.

[4] = molecular target: human recombinant serotonin (5-Hydroxytryptamine) 5-HT7 receptor (Homo sapiens, UniProt P34969); assay: Serotonin 5-HT7 radioligand binding assay ([3H]LSD); details: compound at 1 μM; 5.5 nM [3H]LSD; CHO cells
Chain of human recombinant serotonin (5-Hydroxytryptamine) 5-HT7 receptor (P34969 whole entry): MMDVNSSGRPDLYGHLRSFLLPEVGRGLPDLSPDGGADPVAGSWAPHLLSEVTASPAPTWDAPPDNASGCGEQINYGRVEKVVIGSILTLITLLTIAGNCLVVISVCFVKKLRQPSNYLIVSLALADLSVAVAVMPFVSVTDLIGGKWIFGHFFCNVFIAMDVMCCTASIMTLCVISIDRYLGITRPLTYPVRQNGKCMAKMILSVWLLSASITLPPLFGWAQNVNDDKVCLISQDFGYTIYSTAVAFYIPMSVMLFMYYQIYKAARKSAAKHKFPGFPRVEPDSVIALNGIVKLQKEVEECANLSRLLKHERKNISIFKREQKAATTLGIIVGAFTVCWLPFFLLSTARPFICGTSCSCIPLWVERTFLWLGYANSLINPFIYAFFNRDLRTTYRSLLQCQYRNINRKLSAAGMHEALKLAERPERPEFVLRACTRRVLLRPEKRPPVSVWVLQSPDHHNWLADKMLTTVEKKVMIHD
Description: as §2, with “of” for “of the”, “5.5” for “1.5”, “[^3H] Lysergic” for “[3H]Lysergic”, “2 h” for “120 min”, “25°” for “37°”, “[^3H]LSD” for “[3H]LSD”

[5] = molecular target: T4, human recombinant adrenergic α1D receptor (Homo sapiens, UniProt P25100); assay: Adrenergic α1D radioligand binding assay ([3H]Prozosin); details: compound at 1 μM; 0.6 nM [3H]Prozosin; HEK-293 cells; read-out: Percent Inhibition of ligand binding, Adrenergic (1 μM) a1D
T4 construct: expressed in transfected cells; host or cells: human embryonic kidney (HEK-293) cells
T4 sequence (P25100 1-572): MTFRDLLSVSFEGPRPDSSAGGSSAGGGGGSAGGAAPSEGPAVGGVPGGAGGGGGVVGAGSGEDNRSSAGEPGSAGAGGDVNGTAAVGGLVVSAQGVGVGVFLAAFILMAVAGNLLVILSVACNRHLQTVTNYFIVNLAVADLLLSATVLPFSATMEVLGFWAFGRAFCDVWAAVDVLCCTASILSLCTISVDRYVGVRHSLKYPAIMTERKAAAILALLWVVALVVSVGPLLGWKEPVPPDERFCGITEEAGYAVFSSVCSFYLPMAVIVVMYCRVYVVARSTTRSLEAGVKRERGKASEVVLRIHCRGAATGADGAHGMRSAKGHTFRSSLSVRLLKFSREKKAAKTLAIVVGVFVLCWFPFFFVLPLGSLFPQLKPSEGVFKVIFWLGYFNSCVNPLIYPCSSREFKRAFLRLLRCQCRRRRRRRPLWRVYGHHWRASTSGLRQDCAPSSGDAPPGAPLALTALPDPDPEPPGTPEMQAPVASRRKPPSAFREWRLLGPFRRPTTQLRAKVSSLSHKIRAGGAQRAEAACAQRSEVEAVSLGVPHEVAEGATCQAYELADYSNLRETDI
Description: Compounds of invention were incubated with 0.6 nM [^3H]Prozosin for 60 min at 25° C. Non-specific binding was estimated in the presence of 10 μM phentolamine Receptor proteins were filtered and washed, the filters were then counted to determine [^3H]Prozosin specifically bound.

[6] = molecular target: human recombinant histamine H1 receptor (Homo sapiens, UniProt P35367); assay: Histamine H1 radioligand binding assay ([3H]Pyrilamine); details: compound at 1 μM, receptor expressed in CHO cells
Chain of human recombinant histamine H1 receptor (P35367 whole entry): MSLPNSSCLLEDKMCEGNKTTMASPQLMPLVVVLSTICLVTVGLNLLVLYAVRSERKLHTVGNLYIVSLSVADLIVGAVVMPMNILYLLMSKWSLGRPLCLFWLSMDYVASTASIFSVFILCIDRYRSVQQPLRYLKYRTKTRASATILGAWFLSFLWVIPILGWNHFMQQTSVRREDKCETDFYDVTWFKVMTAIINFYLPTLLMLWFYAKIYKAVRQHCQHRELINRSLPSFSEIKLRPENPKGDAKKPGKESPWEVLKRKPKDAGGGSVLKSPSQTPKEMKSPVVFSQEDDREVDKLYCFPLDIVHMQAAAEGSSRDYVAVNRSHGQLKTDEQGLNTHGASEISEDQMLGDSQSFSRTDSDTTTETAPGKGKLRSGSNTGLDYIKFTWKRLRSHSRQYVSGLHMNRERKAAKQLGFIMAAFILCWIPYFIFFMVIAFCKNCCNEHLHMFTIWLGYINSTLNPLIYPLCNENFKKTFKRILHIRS
Description: To evaluate in radioligand binding assays the activity of compounds of the invention, human recombinant histamine H1 receptor expressed in Chinese hamster ovary (CHO) cells (De Backer, M. D. et al., Biochem. Biophys. Res. Comm. 197(3):1601, 1993) in a modified Tris-HCl buffer (50 mM Tris-HCl, pH 7.4, 2 mM MgCl2, 100 mM NaCl, 250 mM Sucrose) was used. Compounds of the invention were incubated with 1.2 nM [^3H]Pyrilamine for 180 min at 25° C. Non-specific binding was estimated in the presence of 1 μM pyrilamine Receptor proteins were filtered and washed, the filters were then counted to determine [^3H]Pyrilamine specifically bound. Compounds were screened at 1 μM or lower, using 1% DMSO as vehicle. Biochemical assay results are presented as the percent inhibition of specific binding in Table 2.

[7] = molecular target: T5, human recombinant adrenergic α2C receptor (Homo sapiens, UniProt P18825); assay: Adrenergic α2C radioligand binding assay ([3H]MK-912); details: compound at 0.1 μM; 1 nM [3H]MK-912; insect Sf9 cells; read-out: Percent Inhibition of ligand binding, Adrenergic (0.1 μM) a2C
T5 construct: expressed in transfected cells; host or cells: insect Sf9 cells
T5 sequence (P18825 1-462): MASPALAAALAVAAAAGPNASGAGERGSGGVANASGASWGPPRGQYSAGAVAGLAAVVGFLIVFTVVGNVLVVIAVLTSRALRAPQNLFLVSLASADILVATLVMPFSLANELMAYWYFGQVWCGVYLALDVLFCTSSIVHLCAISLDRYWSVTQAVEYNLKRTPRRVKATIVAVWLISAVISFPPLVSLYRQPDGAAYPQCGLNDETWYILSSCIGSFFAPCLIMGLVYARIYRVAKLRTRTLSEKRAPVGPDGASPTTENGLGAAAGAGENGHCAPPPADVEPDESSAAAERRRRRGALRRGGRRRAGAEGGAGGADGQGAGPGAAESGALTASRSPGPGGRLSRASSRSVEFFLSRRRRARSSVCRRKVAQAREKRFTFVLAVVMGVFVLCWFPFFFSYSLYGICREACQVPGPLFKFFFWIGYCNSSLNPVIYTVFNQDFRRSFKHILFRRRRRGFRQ
Description: To evaluate in radioligand binding assays the activity of compounds of the invention, human recombinant adrenergic α2C receptor expressed in insect Sf9 cells (Uhlen S et al. J. Pharmacol. Exp. Ther. 271:1558, 1994) in a modified Tris-HCl buffer (50 mM Tris-HCl, pH 7.4, 12.5 mM MgCl2, 2 mM EDTA) is used. Compounds of the invention are incubated with 1 nM [^3H]MK-912 for 60 min at 25° C. Non-specific binding is estimated in the presence of 10 μM WB-4101. Receptor proteins are filtered and washed, the filters are then counted to determine [^3H]MK-912 specifically bound. Compounds are screened at 1 μM or lower, using 1% DMSO as vehicle. Compounds of the invention are tested in this biochemical assay and percent inhibition of specific binding is determined.

[8] = molecular target: T6, rat adrenergic α1A receptor (Rattus norvegicus, UniProt P43140); assay: Adrenergic α1A radioligand binding assay ([3H]Prozosin); details: compound at 0.1 μM; 0.25 nM [3H]Prozosin; Wistar Rat submaxillary glands; read-out: Percent Inhibition of ligand binding, Adrenergic (0.1 μM) a1A
T6 construct: from tissue; host or cells: Wistar Rat submaxillary glands
T6 sequence (P43140 1-466): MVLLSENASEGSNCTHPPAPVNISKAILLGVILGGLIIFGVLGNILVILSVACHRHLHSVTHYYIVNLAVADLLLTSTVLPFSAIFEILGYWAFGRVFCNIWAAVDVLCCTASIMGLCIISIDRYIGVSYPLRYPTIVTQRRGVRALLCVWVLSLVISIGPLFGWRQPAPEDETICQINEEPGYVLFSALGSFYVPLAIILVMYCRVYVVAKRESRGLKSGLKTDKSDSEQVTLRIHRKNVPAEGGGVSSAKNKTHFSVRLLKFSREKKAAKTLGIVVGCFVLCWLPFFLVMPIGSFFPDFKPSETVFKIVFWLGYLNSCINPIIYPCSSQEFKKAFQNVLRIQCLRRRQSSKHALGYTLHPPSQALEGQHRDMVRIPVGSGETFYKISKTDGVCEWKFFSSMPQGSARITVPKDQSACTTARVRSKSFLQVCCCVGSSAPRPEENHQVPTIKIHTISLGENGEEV
Description: To evaluate in radioligand binding assays the activity of compounds of the invention, rat adrenergic α1A receptor obtained from Wistar Rat submaxillary glands (Michel, A. D. et al., Br. J. Pharmacol. 98:883, 1989) in a modified Tris-HCl buffer (50 mM Tris-HCl buffer, pH 7.4, 0.5 mM EDTA) is used. Compounds of the invention are incubated with 0.25 nM [^3H]Prozosin for 60 min at 25° C. Non-specific binding is estimated in the presence of 10 μM phentolamine. Receptor proteins are filtered and washed, the filters are then counted to determine [^3H]Prozosin specifically bound. Compounds of the invention are screened at 1 μM or lower, using 1% DMSO as vehicle. Compounds of the invention are tested in this biochemical assay and percent inhibition of specific binding is determined.

Row | Structure (SMILES) | Percent Inhibition of ligand binding, Serotonin (1 μM) 5-HT2C [1] | Percent Inhibition of ligand binding, Serotonin (1 μM) 5-HT2A ([2]; compound at 1 μM) | inhibition at 1 µM ([2]; compound at 1 μM) | Percent Inhibition of ligand binding, Serotonin (1 μM) 5-HT6 [3] | Percent Inhibition of ligand binding, Serotonin (1 μM) 5-HT7 [4] | inhibition at 1 µM [5] | Binding Data (% Inhibition) Histamine Binding (1μM) H1 [6] | inhibition at 0.1 µM [7] | inhibition at 0.1 µM [8] | inhibition at 0.1 µM ([2]; compound at 0.1 μM, read-out: Percent Inhibition of ligand binding, Serotonin (0.1 μM) 5-HT2A)
1 | COc1ccc(C(C)(O)Cn2c3c(c4cc(C)ccc42)CN(C)CC3)cc1 (stereo not shown) [Compound 1-4, 1-(2,8-dimethyl-3,4-dihydro-1H-pyrido[4,3-b]indol-5(2H)-yl)-2-(4-methoxyphenyl)propan-2-ol] | 98% | 100% | 97% | 87% | 98% | 57% | 43% | – | – | –
2 | CN1CCc2c(c3cccc(Cl)c3n2CC(C)(O)c2ccncc2)C1 (stereo not shown) [Compound 1-10, 1-(6-chloro-2-methyl-3,4-dihydro-1H-pyrido[4,3-b]indol-5(2H)-yl)-2-(pyridin-4-yl)propan-2-ol] | – | – | 91% | – | – | – | – | 19% | -8% | –
3 | COc1ccc([C@@](C)(O)Cn2c3c(c4cc(C)ccc42)CN(C)CC3)cc1 [Compound 1-19, (R)-1-(2,8-Dimethyl-3,4-dihydro-1H-pyrido[4,3-b]indol-5(2H)-yl)-2-(4-methoxyphenyl)propan-2-ol] | – | – | – | – | – | – | – | 16% | 20% | 98%
